IC50 data for 19 molecules are collected here from patent US11987588B2, “Modulators of the beta-3 adrenergic receptor useful for the treatment or prevention of heart failure and disorders related thereto” (Arena Pharmaceuticals, Inc., priority 2017, dated 2024).

By IC50 is commonly meant the concentration needed to halve the response being measured.

Sequence of Beta-3 Adrenergic Receptor (P13945 whole entry, species assumed): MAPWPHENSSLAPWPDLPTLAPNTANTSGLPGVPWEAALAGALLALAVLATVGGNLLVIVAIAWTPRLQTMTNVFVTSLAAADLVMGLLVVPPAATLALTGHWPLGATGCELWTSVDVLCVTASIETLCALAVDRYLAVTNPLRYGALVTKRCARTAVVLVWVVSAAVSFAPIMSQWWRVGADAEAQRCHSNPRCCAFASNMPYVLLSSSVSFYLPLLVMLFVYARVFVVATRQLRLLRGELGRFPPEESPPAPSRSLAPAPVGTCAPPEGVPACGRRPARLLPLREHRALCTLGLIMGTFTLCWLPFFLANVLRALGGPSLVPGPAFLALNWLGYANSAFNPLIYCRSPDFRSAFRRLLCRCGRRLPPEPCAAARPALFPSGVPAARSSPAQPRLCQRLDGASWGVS

The assay has as its target Beta-3 Adrenergic Receptor (Homo sapiens (Human), UniProt P13945). In words: Homogeneous Time-Resolved Fluorescence (HTRF) cAMP antagonist assay, IC50 determination. The class given is cell-based. The note with it: CHO-K1 cells stably expressing recombinant receptor, isoproterenol at EC90. The method, boiled down: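 CHO-K1 cells stably expressing the recombinant receptor were preincubated with compound (10-point, 5-fold dilutions; top final typically 10 or 100 μM) in PBS with 1 mM IBMX, then stimulated with isoproterenol at its EC90 for 1 h at room temperature. cAMP was read by HTRF against an on-plate standard curve.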
Turning to `Cc1c(S(=O)(=O)N2CCC3(CC2)CC(NC[C@H](O)COc2cccc(S(=O)(=O)NCCCN(C)C)c2)CO3)cnn1-c1ccccc1` (stereo partly drawn) [Compound 313, N-(3-(dimethylamino)propyl)-3-((2S)-2-hydroxy-3-(8-(5-methyl-1-phenyl-1H-pyrazol-4-ylsulfonyl)-1-oxa-8-azaspiro[4.5]decan-3-ylamino)propoxy)benzenesulfonamide], the IC50 is 4010 nM. With `CN(C)CCCNS(=O)(=O)c1cccc(OC[C@@H](O)CNC2COC3(CCN(S(=O)(=O)c4ccc5c(c4)CCCC5)CC3)C2)c1` (stereo partly drawn) [Compound 314, N-(3-(dimethylamino)propyl)-3-((2S)-2-hydroxy-3-(8-(5,6,7,8-tetrahydronaphthalen-2-ylsulfonyl)-1-oxa-8-azaspiro[4.5]decan-3-ylamino)propoxy)benzenesulfonamide], the IC50 was found to be 716 nM. On to `CN(C)CCCNS(=O)(=O)c1cccc(OC[C@@H](O)CNC2COC3(CCN(S(=O)(=O)c4ccc(-c5ccccc5)s4)CC3)C2)c1` (stereo partly drawn) [Compound 315, N-(3-(dimethylamino)propyl)-3-((2S)-2-hydroxy-3-(8-(5-phenylthiophen-2-ylsulfonyl)-1-oxa-8-azaspiro[4.5]decan-3-ylamino)propoxy)benzenesulfonamide], for which the IC50 worked out at 1070 nM. With `CN(C)CCCNS(=O)(=O)c1cccc(OC[C@@H](O)CNC2COC3(CCN(S(=O)(=O)c4ccc5c(c4)N(C)CCO5)CC3)C2)c1` (stereo partly drawn) [Compound 316, N-(3-(dimethylamino)propyl)-3-((2S)-2-hydroxy-3-(8-(4-methyl-3,4-dihydro-2H-benzo[b][1,4]oxazin-6-ylsulfonyl)-1-oxa-8-azaspiro[4.5]decan-3-ylamino)propoxy)benzenesulfonamide], the IC50 was 1940 nM.

With `CN(C)CCCNS(=O)(=O)c1cccc(OC[C@@H](O)CNC2COC3(CCN(S(=O)(=O)c4ccc5ccccc5c4)CC3)C2)c1` (stereo partly drawn) [Compound 317, N-(3-(dimethylamino)propyl)-3-((2S)-2-hydroxy-3-(8-(naphthalen-2-ylsulfonyl)-1-oxa-8-azaspiro[4.5]decan-3-ylamino)propoxy)benzenesulfonamide], the IC50 came to 1010 nM.

Regarding `CC(=O)NS(=O)(=O)c1cccc(OC[C@@H](O)CNC2COC3(CCN(S(=O)(=O)c4ccc5ccccc5c4)CC3)C2)c1` (stereo partly drawn) [Compound 318, N-(3-((2S)-2-hydroxy-3-(8-(naphthalen-2-ylsulfonyl)-1-oxa-8-azaspiro[4.5]decan-3-ylamino)propoxy)phenylsulfonyl)acetamide], the IC50 was determined as 2180 nM. `CNS(=O)(=O)c1cccc(OC[C@@H](O)CNC2COC3(CCN(S(=O)(=O)c4cccc(-c5ccc(CNCC(C)C)cc5)c4)CC3)C2)c1` (stereo partly drawn) [Compound 319, 3-((2S)-2-hydroxy-3-(8-(4′-((isobutylamino)methyl)biphenyl-3-ylsulfonyl)-1-oxa-8-azaspiro[4.5]decan-3-ylamino)propoxy)-N-methylbenzenesulfonamide]: the IC50 turned out to be 34.3 nM. Take `CNS(=O)(=O)c1cccc(OC[C@@H](O)CNC2COC3(CCN(S(=O)(=O)c4cccc(-c5ccc(CNCCC(C)C)cc5)c4)CC3)C2)c1` (stereo partly drawn) [Compound 320, 3-((2S)-2-hydroxy-3-(8-(4′-((isopentylamino)methyl)biphenyl-3-ylsulfonyl)-1-oxa-8-azaspiro[4.5]decan-3-ylamino)propoxy)-N-methylbenzenesulfonamide]: the IC50 stood at 26.3 nM. Turning to `CNS(=O)(=O)c1cccc(OC[C@@H](O)CNC2COC3(CCN(S(=O)(=O)c4cccc(-c5ccc(CNCC(F)(F)F)cc5)c4)CC3)C2)c1` (stereo partly drawn) [Compound 321, 3-((2S)-2-hydroxy-3-(8-(4′-((2,2,2-trifluoroethylamino)methyl)biphenyl-3-ylsulfonyl)-1-oxa-8-azaspiro[4.5]decan-3-ylamino)propoxy)-N-methylbenzenesulfonamide], the IC50 worked out at 70.5 nM. As to `CNS(=O)(=O)c1cccc(OC[C@@H](O)CNC2COC3(CCN(S(=O)(=O)c4ccccn4)CC3)C2)c1` (stereo partly drawn) [Compound 322, 3-((2S)-2-hydroxy-3-(8-(pyridin-2-ylsulfonyl)-1-oxa-8-azaspiro[4.5]decan-3-ylamino)propoxy)-N-methylbenzenesulfonamide], the IC50 came out at 73.5 nM. Consider `CNS(=O)(=O)c1cccc(OC[C@@H](O)CNC2COC3(CCN(S(=O)(=O)c4ccc5ncccc5c4)CC3)C2)c1` (stereo partly drawn) [Compound 323, 3-((2S)-2-hydroxy-3-(8-(quinolin-6-ylsulfonyl)-1-oxa-8-azaspiro[4.5]decan-3-ylamino)propoxy)-N-methylbenzenesulfonamide], for which the IC50 turned out to be 24.8 nM. On to `CNS(=O)(=O)c1cccc(OC[C@@H](O)CNC2COC3(CCN(S(=O)(=O)c4cccnc4)CC3)C2)c1` (stereo partly drawn) [Compound 324, 3-((2S)-2-hydroxy-3-(8-(pyridin-3-ylsulfonyl)-1-oxa-8-azaspiro[4.5]decan-3-ylamino)propoxy)-N-methylbenzenesulfonamide], for which the IC50 turned out to be 78 nM.

For the molecule `CNS(=O)(=O)c1cccc(OC[C@@H](O)CNC2COC3(CCN(S(=O)(=O)c4ccc5[nH]ncc5c4)CC3)C2)c1` (stereo partly drawn) [Compound 325, 3-((2S)-3-(8-(1H-indazol-5-ylsulfonyl)-1-oxa-8-azaspiro[4.5]decan-3-ylamino)-2-hydroxypropoxy)-N-methylbenzenesulfonamide], the half-inhibitory concentration (IC50) is 42.7 nM. Then `CNS(=O)(=O)c1cccc(OC[C@@H](O)CNC2COC3(CCN(S(=O)(=O)c4cc5ccccc5o4)CC3)C2)c1` (stereo partly drawn) [Compound 326, 3-((2S)-3-(8-(benzofuran-2-ylsulfonyl)-1-oxa-8-azaspiro[4.5]decan-3-ylamino)-2-hydroxypropoxy)-N-methylbenzenesulfonamide], with 11.7 nM; and `CNS(=O)(=O)c1cccc(OC[C@@H](O)CNC2COC3(CCN(S(=O)(=O)c4ccc5oncc5c4)CC3)C2)c1` (stereo partly drawn) [Compound 327, 3-((2S)-3-(8-(benzo[d]isoxazol-5-ylsulfonyl)-1-oxa-8-azaspiro[4.5]decan-3-ylamino)-2-hydroxypropoxy)-N-methylbenzenesulfonamide], with 92.1 nM; and `CNS(=O)(=O)c1cccc(OC[C@@H](O)CNC2COC3(CCN(S(=O)(=O)c4ccc5cn[nH]c5c4)CC3)C2)c1` (stereo partly drawn) [Compound 328, 3-((2S)-3-(8-(1H-indazol-6-ylsulfonyl)-1-oxa-8-azaspiro[4.5]decan-3-ylamino)-2-hydroxypropoxy)-N-methylbenzenesulfonamide], with 37 nM. Consider `CCn1ncc(S(=O)(=O)N2CCC3(CC2)CC(NC[C@H](O)COc2cccc(S(=O)(=O)NC)c2)CO3)c1C` (stereo partly drawn) [Compound 329, 3-((2S)-3-(8-(1-ethyl-5-methyl-1H-pyrazol-4-ylsulfonyl)-1-oxa-8-azaspiro[4.5]decan-3-ylamino)-2-hydroxypropoxy)-N-methylbenzenesulfonamide], for which the IC50 stood at 156 nM. `CNS(=O)(=O)c1cccc(OC[C@@H](O)CNC2COC3(CCN(S(=O)(=O)c4ccc5c(c4)CCO5)CC3)C2)c1` (stereo partly drawn) [Compound 330, 3-((2S)-3-(8-(2,3-dihydrobenzofuran-5-ylsulfonyl)-1-oxa-8-azaspiro[4.5]decan-3-ylamino)-2-hydroxypropoxy)-N-methylbenzenesulfonamide]: the IC50 was 36.7 nM. The result for `CNS(=O)(=O)c1cccc(OC[C@@H](O)CNC2COC3(CCN(S(=O)(=O)c4ccc5occc5c4)CC3)C2)c1` (stereo partly drawn) [Compound 331, 3-((2S)-3-(8-(benzofuran-5-ylsulfonyl)-1-oxa-8-azaspiro[4.5]decan-3-ylamino)-2-hydroxypropoxy)-N-methylbenzenesulfonamide] reads 19.6 nM.
